IC50 and fold induction data for 19 compounds are collected here from patent publication US20060276464A1, “Diarylsulfone sulfonamides and use thereof” (Wyeth, priority 2005, published 2006).

Values joined by “and” are separate entries in the source; they are usually repeats but may differ in a detail not shown here. Identical values can stand only once. Like-named read-outs stand apart in the source and are kept apart here.

The target of assay [1] is T1, SFRP-1 (Homo sapiens, UniProt Q8N474).
T1 sequence (Q8N474 32-314): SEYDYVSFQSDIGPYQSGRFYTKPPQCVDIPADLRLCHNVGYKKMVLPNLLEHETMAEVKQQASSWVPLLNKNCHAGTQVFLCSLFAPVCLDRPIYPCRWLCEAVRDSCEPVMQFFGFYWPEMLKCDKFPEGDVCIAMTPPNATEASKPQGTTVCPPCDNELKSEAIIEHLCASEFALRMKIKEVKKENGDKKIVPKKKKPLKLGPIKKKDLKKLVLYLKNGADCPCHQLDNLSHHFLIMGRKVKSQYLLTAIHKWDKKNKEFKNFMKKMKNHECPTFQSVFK
The assay is described as follows: Fluorescence polarization binding assay (competitive displacement of a probe compound from SFRP-1).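 Note: test compound competes with a fluorescent probe held by SFRP-1, seen as a drop in probe anisotropy after incubation in darkness, with anisotropy as function of rising compound dose.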 As to conditions: fluorescence anisotropy, 45 nM SFRP-1, 20 nM probe. In general terms: Polarisation of emitted light reports the rotation of a fluorescent probe.

The target of assay [2] is T1, SFRP-1. The assay is described as follows: Cell-based assay for in vitro measurement of SFRP-1/SARP2 antagonist activity (U2OS cells co-transfected with 16x TCF-tk-Luciferase reporter, Wnt and hSFRP-1).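 Note: U2OS cells co-transfected with a TCF-tk luciferase reporter, a Wnt vector, hSFRP-1 or empty vector and CMV-βgal, luciferase luminescence read in cell lysates alongside βgal activity.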 As to conditions: U2OS, single dose, luciferase reporter.
Where [3] appears, read: read-out: Fold Induction with SFRP-1, Conc 15 μM, fold induction over SFRP-1 control, cells with SFRP-1.
Setting [4] is: read-out: Fold Induction without SFRP-1, Conc 15 μM, cells without SFRP-1 (specificity control).

Usually IC50 stands for the concentration at which inhibition is half-maximal. Take `Cc1ccc(S(=O)(=O)c2ccccc2)cc1S(=O)(=O)NC1CCN(C(=O)CC(C)(C)C)CC1` [Example 504, N-[1-(3,3-dimethylbutanoyl)piperidin-4-yl]-2-methyl-5-(phenylsulfonyl)benzenesulfonamide]: in assay [1], the IC50 was determined as 4000 nM. Also, the fold induction at 15 µM in assay [2] (setting [3]) came out at 2.2; in assay [2] (setting [4]), 1.

`CC(C)c1ccc(S(=O)(=O)c2cc(Cl)cc(Cl)c2)cc1S(=O)(=O)NCCc1ccccn1` [Example 505, 5-[(3,5-dichlorophenyl)sulfonyl]-2-isopropyl-N-(2-pyridin-2-ylethyl)benzenesulfonamide]: the half-maximal inhibitory concentration (IC50) in assay [1] stood at 700 nM. For the same compound, the values for the fold induction at 15 µM in assay [2] (setting [3]) and in assay [2] (setting [4]) were 2.3 and 1, respectively.

In turn, `CC(C)c1ccc(S(=O)(=O)c2cccc(OC(F)(F)F)c2)cc1S(=O)(=O)NCCc1ccccn1` [Example 506, 2-isopropyl-N-(2-pyridin-2-ylethyl)-5-{[3-(trifluoromethoxy)phenyl]sulfonyl}benzenesulfonamide] displayed an IC50 in assay [1] of 2400 nM. Moreover, the fold induction at 15 µM in assay [2] (setting [3]) was 2.7; in assay [2] (setting [4]), 1.

In turn, `CC(C)c1ccc(S(=O)(=O)c2ccc(N(C)C)cc2)cc1S(=O)(=O)NCCc1ccccn1` [Example 507, 5-{[4-(dimethylamino)phenyl]sulfonyl}-2-isopropyl-N-(2-pyridin-2-ylethyl)benzenesulfonamide] came in with an IC50 in assay [1] of 500 nM. Besides, the values for the fold induction at 15 µM in assay [2] (setting [3]) and in assay [2] (setting [4]) were 2.7 and 0.9, respectively.

In the case of `CC(C)c1ccc(S(=O)(=O)c2cccc(C(F)(F)F)c2)cc1S(=O)(=O)NCCc1ccccn1` [Example 508, 2-isopropyl-N-(2-pyridin-2-ylethyl)-5-{[3-(trifluoromethyl)phenyl]sulfonyl}benzenesulfonamide], the IC50 in assay [1] turned out to be 1300 nM. Moreover, the fold induction at 15 µM came to 2.3 in assay [2] (setting [3]) and 0.9 in assay [2] (setting [4]).

`COc1ccc(Cl)cc1S(=O)(=O)c1ccc(C(C)C)c(S(=O)(=O)NCCc2ccccn2)c1` [Example 509, 5-[(5-chloro-2-methoxyphenyl)sulfonyl]-2-isopropyl-N-(2-pyridin-2-ylethyl)benzenesulfonamide] yielded an IC50 in assay [1] of 1200 nM. For the same compound, the fold induction at 15 µM is 1.9 in assay [2] (setting [3]) and 1 in assay [2] (setting [4]).

Compound `CC(C)c1ccc(S(=O)(=O)c2cccc3cccnc23)cc1S(=O)(=O)NCCc1ccccn1` [Example 510, 2-isopropyl-N-(2-pyridin-2-ylethyl)-5-(quinolin-8-ylsulfonyl)benzenesulfonamide] came in with an IC50 in assay [1] of 900 nM. Further, the fold induction at 15 µM was 1.9 in assay [2] (setting [3]) and 1.1 in assay [2] (setting [4]).

In the case of `CC(C)c1ccc(S(=O)(=O)c2cc(Cl)sc2Cl)cc1S(=O)(=O)NCCc1ccccn1` [Example 511, 5-[(2,5-dichloro-3-thienyl)sulfonyl]-2-isopropyl-N-(2-pyridin-2-ylethyl)benzenesulfonamide], the IC50 in assay [1] is 1800 nM and 2300 nM. In addition, the figures for the fold induction at 15 µM in assay [2] (setting [3]) and in assay [2] (setting [4]) were 2.8 and 0.9, respectively.

For the compound `Cc1nn(C)c(Cl)c1S(=O)(=O)c1ccc(C(C)C)c(S(=O)(=O)NCCc2ccccn2)c1` [Example 512, 5-[(5-chloro-1,3-dimethyl-1H-pyrazol-4-yl)sulfonyl]-2-isopropyl-N-(2-pyridin-2-ylethyl)benzenesulfonamide], the IC50 in assay [1] worked out at 1000 nM. Also, the fold induction at 15 µM came out at 3.1 in assay [2] (setting [3]) and 1.1 in assay [2] (setting [4]).

Take `CC(C)c1ccc(S(=O)(=O)c2cn(C)cn2)cc1S(=O)(=O)NCCc1ccccn1` [Example 513, 2-isopropyl-5-[(1-methyl-1H-imidazol-4-yl)sulfonyl]-N-(2-pyridin-2-ylethyl)benzenesulfonamide]: in assay [1], the IC50 worked out at 6000 nM. Besides, the fold induction at 15 µM in assay [2] (setting [3]) was 2.2; in assay [2] (setting [4]) it was 1.2.

Compound `Cc1c(Cl)cccc1S(=O)(=O)c1ccc(C(C)C)c(S(=O)(=O)NCCc2ccccn2)c1` [Example 514, 5-[(3-chloro-2-methylphenyl)sulfonyl]-2-isopropyl-N-(2-pyridin-2-ylethyl)benzenesulfonamide] returned an IC50 in assay [1] of 700 nM. Besides, the fold induction at 15 µM in assay [2] (setting [3]) was determined as 2.6; in assay [2] (setting [4]) it was 1.

Turning to `Cc1ccc(S(=O)(=O)c2ccccc2)cc1S(=O)(=O)NC1CCN(C(=O)c2cccnc2)CC1` [Example 516, 2-methyl-5-(phenylsulfonyl)-N-[1-(pyridin-3-ylcarbonyl)piperidin-4-yl]benzenesulfonamide], the IC50 in assay [1] turned out to be 2600 nM. Also, the results for the fold induction at 15 µM in assay [2] (setting [3]) and in assay [2] (setting [4]) were 3 and 1, respectively.

The compound `CC(C)c1ccc(S(=O)(=O)c2ccc(F)cc2)cc1S(=O)(=O)NC1CCN(C(=O)OC(C)(C)C)CC1` [Example 517, tert-butyl 4-[({5-[(4-fluorophenyl)sulfonyl]-2-isopropylphenyl}sulfonyl)amino]piperidine-1-carboxylate] returned an IC50 in assay [1] of 1600 nM. Further, the fold induction at 15 µM in assay [2] (setting [3]) worked out at 2.2; in assay [2] (setting [4]), 1.

For the compound `CC(C)c1ccc(S(=O)(=O)c2ccc(F)cc2)cc1S(=O)(=O)NC1CCN(S(=O)(=O)c2cccc3c(N(C)C)cccc23)CC1` [Example 518, N-(1-{[5-(dimethylamino)-1-naphthyl]sulfonyl}piperidin-4-yl)-5-[(4-fluorophenyl)sulfonyl]-2-isopropylbenzenesulfonamide], the IC50 in assay [1] worked out at 500 nM. The fold induction at 15 µM in assay [2] (setting [3]) is 3; in assay [2] (setting [4]), 1.2.

For the compound `COCC(=O)N1CCC(NS(=O)(=O)c2cc(S(=O)(=O)c3ccc(F)cc3)ccc2C(C)C)CC1` [Example 519, 5-[(4-fluorophenyl)sulfonyl]-2-isopropyl-N-[1-(methoxyacetyl)piperidin-4-yl]benzenesulfonamide], the IC50 in assay [1] worked out at 800 nM. The fold induction at 15 µM in assay [2] (setting [3]) is 3; in assay [2] (setting [4]), 0.9.

On to `CC(C)c1ccc(S(=O)(=O)c2ccc(F)cc2)cc1S(=O)(=O)NC1CCNCC1` [Example 520, 5-[(4-fluorophenyl)sulfonyl]-2-isopropyl-N-piperidin-4-ylbenzenesulfonamide], for which the IC50 in assay [1] amounted to 2400 nM. Further, the figures for the fold induction at 15 µM in assay [2] (setting [3]) and in assay [2] (setting [4]) were 3.3 and 1.1, respectively.

In the case of `CC(C)c1ccc(S(=O)(=O)c2ccc(F)cc2)cc1S(=O)(=O)NC1CCCC1` [Example 523, N-cyclopentyl-5-[(4-fluorophenyl)sulfonyl]-2-isopropylbenzenesulfonamide], the IC50 in assay [1] is 3000 nM. The fold induction at 15 µM was 2.1 in assay [2] (setting [3]) and 1 in assay [2] (setting [4]).

In turn, `CC(C)c1ccc(S(=O)(=O)c2ccc(F)cc2)cc1S(=O)(=O)NC1CCN(Cc2ccccc2)CC1` [Example 525, N-(1-benzylpiperidin-4-yl)-5-[(4-fluorophenyl)sulfonyl]-2-isopropylbenzenesulfonamide] gave an IC50 in assay [1] of 1000 nM. For the same compound, the fold induction at 15 µM in assay [2] (setting [3]) amounted to 2.1; in assay [2] (setting [4]), 1.1.

In the case of `CCOC(=O)N1CCC(NS(=O)(=O)c2cc(S(=O)(=O)c3ccc(F)cc3)ccc2C(C)C)CC1` [Example 526, ethyl 4-[({5-[(4-fluorophenyl)sulfonyl]-2-isopropylphenyl}sulfonyl)amino]piperidine-1-carboxylate], the IC50 in assay [1] came to 500 nM. Also, the fold induction at 15 µM was found to be 2.1 in assay [2] (setting [3]) and 1.1 in assay [2] (setting [4]).
